The values that follow come from patent US20210322443A1 (MAPREG, priority 2015, published 2021).

Assay [1] concerns the target Muscarinic (Cholinergic) M3 (Homo sapiens, UniProt P20309). In words: CNS receptor binding assay. The following applies: [3H] 4-DAMP, Human recombinant (CHO cells), read-out: % Inhibition of control specific binding.
The subject of assay [2] is Noradrenergic α2. In words: CNS receptor binding assay. The note with it: 10 μM; [3H] RX 821002; rat cerebral cortex.
The test system of assay [3] is Noradrenergic α1. In words: CNS receptor binding assay. The note with it: 10 μM; [3H] prazosin; rat cerebral cortex.
Assay [4] has as its target Serotoninergic 5-HT1A (Homo sapiens, UniProt P08908). The experiment in a line: CNS receptor binding assay. The following applies: read-out: % Inhibition of control specific binding.
Assay [5] has as its target MAP2 (Homo sapiens, UniProt P11137). In words: Binding by displacement of PREG-3H.
In assay [6] the target is Noradrenergic β1 (Homo sapiens, UniProt P08588). The experiment in a line: CNS receptor binding assay. The following applies: read-out: % Inhibition of control specific binding.
Chain of Noradrenergic β1 (P08588 whole entry): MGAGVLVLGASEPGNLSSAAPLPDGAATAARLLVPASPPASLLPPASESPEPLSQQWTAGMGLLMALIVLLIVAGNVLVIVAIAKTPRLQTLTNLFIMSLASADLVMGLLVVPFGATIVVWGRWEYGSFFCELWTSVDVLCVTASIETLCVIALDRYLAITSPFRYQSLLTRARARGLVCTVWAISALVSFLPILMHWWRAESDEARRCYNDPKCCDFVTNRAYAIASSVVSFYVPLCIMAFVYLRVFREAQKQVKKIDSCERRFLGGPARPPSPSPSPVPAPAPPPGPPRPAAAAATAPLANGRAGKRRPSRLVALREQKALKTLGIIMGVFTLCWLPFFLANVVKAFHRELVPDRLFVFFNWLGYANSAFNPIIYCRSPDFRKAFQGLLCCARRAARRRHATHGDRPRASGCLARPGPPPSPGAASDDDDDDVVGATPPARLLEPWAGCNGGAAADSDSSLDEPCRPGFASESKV
The target in assay [7] is Muscarinic (Cholinergic) M1 (Homo sapiens, UniProt P11229). In words: CNS receptor binding assay. The following applies: [3H] pirenzepine, Human recombinant (CHO cells), read-out: % Inhibition of control specific binding.
Assay [8] has as its target Serotoninergic 5-HT2C (Homo sapiens, UniProt P28335). In words: CNS receptor binding assay. The note with it: read-out: % Inhibition of control specific binding.
Assay [9] addresses Histaminergic H1 (Homo sapiens, UniProt P35367). In words: CNS receptor binding assay. The following applies: read-out: % Inhibition of control specific binding.
Assay [10] addresses Histaminergic H2 (Homo sapiens, UniProt P25021). The experiment in a line: CNS receptor binding assay. The following applies: read-out: % Inhibition of control specific binding.
In assay [11] the target is Oppioid κ (Rattus norvegicus, UniProt P34975). The experiment in a line: CNS receptor binding assay. The following applies: [3H] U 69593, rat recombinant (CHO cells), read-out: % Inhibition of control specific binding.
Assay [12] deals with Androgen Receptor (AR) (Rattus norvegicus, UniProt P15207). The experiment in a line: Radioligand binding assay, steroid hormone receptors. The following applies: 1.5 nM [3H] Mibolerone, Rat recombinant E. coli, read-out: % inhibition of specific binding. The method, then:
Binding affinity of 3β-methoxy-PREG (MAP4343) for receptors of steroid hormones was evaluated using radioligand binding assays.

Assay [13] concerns the target Muscarinic (Cholinergic) M4 (Homo sapiens, UniProt P08173). The experiment in a line: CNS receptor binding assay. The following applies: [3H] 4-DAMP, Human recombinant (CHO cells), read-out: % Inhibition of control specific binding.
Assay [14] deals with Serotoninergic 5-HT7 (Homo sapiens, UniProt P34969). In words: CNS receptor binding assay. The note with it: read-out: % Inhibition of control specific binding.
Chain of Serotoninergic 5-HT7 (P34969 whole entry): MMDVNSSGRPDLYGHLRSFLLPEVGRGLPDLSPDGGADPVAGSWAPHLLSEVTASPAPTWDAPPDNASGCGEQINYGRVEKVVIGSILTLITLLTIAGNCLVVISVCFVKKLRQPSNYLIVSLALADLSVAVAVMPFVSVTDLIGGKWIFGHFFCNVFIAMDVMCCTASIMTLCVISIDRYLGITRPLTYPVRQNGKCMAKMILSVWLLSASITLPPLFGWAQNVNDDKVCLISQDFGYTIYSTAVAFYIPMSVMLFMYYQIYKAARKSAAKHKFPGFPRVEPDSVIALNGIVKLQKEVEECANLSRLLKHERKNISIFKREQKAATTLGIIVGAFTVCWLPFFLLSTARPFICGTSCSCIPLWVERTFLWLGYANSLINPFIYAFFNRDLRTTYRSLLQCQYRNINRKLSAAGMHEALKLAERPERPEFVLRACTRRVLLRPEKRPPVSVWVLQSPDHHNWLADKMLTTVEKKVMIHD
Assay [15] concerns the target T1, human progesterone receptor(PR) (Homo sapiens, UniProt P06401).
T1 construct: expressed in transfected cells; host or cells: HEK293T
T1 sequence (P06401 1-933): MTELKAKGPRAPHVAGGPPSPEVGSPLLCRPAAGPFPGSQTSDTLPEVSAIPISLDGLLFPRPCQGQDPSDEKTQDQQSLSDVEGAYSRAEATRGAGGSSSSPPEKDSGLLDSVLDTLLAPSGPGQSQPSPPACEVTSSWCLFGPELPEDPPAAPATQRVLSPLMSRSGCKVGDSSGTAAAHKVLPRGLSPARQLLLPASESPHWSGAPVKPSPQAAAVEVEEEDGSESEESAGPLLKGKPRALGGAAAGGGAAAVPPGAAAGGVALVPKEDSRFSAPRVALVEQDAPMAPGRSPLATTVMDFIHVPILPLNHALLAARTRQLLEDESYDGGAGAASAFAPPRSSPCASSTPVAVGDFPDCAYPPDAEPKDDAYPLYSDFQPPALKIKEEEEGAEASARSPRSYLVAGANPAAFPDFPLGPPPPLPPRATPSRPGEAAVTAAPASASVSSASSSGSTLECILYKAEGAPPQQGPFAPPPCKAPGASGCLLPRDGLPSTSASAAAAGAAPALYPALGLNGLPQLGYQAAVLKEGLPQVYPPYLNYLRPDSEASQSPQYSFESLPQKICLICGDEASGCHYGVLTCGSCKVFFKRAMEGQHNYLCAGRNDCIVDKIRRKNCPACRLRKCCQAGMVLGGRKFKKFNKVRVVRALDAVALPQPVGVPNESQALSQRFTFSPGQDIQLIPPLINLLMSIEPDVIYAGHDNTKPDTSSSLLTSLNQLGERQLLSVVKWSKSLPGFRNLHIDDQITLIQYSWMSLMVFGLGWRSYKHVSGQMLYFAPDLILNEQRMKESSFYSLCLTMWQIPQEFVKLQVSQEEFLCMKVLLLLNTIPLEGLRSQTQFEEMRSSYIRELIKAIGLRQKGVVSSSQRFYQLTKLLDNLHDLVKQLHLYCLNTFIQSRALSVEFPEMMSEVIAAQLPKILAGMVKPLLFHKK
In words: Progesterone receptor agonist transactivation (MMTV-luciferase) in transfected HEK293T cells. The following applies: 24 hours, increasing amounts, FIG. 1. It is filed as cell-based. As to the method: The main experimental setting used is the following: HEK293T cells were transiently transfected, using calcium phosphate precipitation technology, with expression vectors pSG5hPR (which permits expression of human progesterone receptor(PR)), pFC31-luc (contains the luciferase gene under the control of the MMTV promoter, which is in turn activated by binding of a progestin to progesterone receptor) and pcbetagal (which permits expression of betagalactosidase), and cultured during 24 hours with increasing amounts of various compositions: • 1. […] Test of progesterone receptor […] activity: transfected cells were cultured with progesterone (1 nM) and increasing amounts of RU486 (a well-known progesterone receptor antagonist) or 3-methoxy-pregnenolone. • With this setting, a compound with progesterone receptor antagonist activity competes with progesterone for the occupation of progesterone receptor and results in a progressive loss of transactivation activity when the amount of this compound is increased compared to progesterone.

The target of assay [16] is Serotoninergic 5-HT6 (Homo sapiens, UniProt P50406). In words: CNS receptor binding assay. The note with it: read-out: % Inhibition of control specific binding.
Chain of Serotoninergic 5-HT6 (P50406 whole entry): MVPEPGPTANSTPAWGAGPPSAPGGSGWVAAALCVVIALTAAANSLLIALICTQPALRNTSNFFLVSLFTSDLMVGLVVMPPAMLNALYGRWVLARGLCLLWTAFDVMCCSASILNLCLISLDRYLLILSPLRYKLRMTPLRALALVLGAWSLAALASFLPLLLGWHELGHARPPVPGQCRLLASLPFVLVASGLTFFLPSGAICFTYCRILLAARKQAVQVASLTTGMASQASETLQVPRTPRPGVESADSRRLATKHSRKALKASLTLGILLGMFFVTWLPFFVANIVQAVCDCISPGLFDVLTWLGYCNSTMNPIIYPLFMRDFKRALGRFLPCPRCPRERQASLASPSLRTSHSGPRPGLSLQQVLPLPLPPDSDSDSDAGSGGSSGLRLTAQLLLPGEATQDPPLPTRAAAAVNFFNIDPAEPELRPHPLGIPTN
Assay [17] relates to GABA (non-selective). The experiment in a line: CNS receptor binding assay. The following applies: 10 μM; [3H] GABA; rat cerebral cortex.
Assay [18] has as its target Muscarinic (Cholinergic) M2 (Homo sapiens, UniProt P08172). The experiment in a line: CNS receptor binding assay. The following applies: [3H] AF-DX 384, Human recombinant (CHO cells), read-out: % Inhibition of control specific binding.
Assay [19] concerns the target Oppioid μ (Homo sapiens, UniProt P35372). In words: CNS receptor binding assay. The note with it: [3H] DAMGO, Human recombinant (HEK-293 cells), read-out: % Inhibition of control specific binding.

Chain of Muscarinic (Cholinergic) M2 (P08172 whole entry): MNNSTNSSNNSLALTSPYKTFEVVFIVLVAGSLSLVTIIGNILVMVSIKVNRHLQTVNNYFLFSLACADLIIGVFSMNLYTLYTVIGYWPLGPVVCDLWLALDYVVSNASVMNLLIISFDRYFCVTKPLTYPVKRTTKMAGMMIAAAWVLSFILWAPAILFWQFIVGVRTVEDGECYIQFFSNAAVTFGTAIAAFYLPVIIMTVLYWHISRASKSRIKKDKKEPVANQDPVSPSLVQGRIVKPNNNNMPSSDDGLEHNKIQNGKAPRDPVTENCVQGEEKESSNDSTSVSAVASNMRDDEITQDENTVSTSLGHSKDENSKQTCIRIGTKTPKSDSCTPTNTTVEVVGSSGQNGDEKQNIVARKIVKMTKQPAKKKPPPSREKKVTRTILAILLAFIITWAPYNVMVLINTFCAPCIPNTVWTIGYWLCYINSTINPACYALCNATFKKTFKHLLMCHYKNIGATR
Chain of Muscarinic (Cholinergic) M3 (P20309 whole entry): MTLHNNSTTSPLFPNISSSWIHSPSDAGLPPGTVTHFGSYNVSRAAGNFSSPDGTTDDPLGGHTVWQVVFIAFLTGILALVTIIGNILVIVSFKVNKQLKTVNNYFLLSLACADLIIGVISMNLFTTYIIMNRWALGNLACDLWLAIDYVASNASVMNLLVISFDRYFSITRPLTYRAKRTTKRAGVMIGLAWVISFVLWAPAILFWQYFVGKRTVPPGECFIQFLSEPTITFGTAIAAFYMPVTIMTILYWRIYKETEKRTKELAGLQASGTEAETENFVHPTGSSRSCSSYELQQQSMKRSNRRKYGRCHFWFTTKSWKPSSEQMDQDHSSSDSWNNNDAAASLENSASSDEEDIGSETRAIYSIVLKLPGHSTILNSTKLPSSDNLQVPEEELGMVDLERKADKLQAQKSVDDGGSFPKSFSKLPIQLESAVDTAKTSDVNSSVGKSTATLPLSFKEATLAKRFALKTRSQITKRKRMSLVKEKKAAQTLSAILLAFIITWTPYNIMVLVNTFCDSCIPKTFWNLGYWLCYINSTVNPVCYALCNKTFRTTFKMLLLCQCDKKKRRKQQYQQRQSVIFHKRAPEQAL
Chain of Muscarinic (Cholinergic) M4 (P08173 whole entry): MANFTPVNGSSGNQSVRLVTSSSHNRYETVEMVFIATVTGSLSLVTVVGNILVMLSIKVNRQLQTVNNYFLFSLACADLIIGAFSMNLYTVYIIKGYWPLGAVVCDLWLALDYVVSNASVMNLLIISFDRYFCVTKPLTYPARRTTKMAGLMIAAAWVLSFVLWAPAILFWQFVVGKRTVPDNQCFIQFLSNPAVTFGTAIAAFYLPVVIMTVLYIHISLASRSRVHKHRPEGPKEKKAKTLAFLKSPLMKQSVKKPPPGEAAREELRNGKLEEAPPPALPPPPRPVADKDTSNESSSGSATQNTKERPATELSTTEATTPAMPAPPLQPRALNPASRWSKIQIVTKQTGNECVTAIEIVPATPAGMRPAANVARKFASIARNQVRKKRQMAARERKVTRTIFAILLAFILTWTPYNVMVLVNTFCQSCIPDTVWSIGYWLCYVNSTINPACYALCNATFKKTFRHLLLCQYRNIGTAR
Chain of Oppioid μ (P35372 whole entry): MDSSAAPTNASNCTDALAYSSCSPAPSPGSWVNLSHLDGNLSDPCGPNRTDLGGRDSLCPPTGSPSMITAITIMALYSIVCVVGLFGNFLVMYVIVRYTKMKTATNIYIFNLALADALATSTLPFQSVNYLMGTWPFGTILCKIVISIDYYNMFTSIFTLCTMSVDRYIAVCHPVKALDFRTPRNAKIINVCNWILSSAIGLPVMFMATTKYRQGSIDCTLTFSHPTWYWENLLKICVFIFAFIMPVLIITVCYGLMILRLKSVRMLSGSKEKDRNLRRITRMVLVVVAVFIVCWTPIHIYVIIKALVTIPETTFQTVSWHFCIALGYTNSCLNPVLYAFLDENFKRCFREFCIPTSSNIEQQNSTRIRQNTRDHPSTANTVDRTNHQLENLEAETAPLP
Chain of Histaminergic H1 (P35367 whole entry): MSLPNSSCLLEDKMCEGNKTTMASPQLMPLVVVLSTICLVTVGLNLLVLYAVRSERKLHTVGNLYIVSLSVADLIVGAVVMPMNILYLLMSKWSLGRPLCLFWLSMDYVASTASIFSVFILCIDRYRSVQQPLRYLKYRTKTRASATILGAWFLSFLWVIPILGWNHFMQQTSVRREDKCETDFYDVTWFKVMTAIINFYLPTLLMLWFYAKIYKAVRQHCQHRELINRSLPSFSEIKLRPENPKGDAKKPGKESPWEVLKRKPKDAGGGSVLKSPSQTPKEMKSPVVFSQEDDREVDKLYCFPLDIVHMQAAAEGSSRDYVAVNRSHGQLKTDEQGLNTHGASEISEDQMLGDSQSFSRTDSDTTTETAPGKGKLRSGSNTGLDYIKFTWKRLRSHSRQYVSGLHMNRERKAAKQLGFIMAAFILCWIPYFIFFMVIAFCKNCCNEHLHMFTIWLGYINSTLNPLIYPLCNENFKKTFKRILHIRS
Chain of Androgen Receptor (AR) (P15207 whole entry S389L): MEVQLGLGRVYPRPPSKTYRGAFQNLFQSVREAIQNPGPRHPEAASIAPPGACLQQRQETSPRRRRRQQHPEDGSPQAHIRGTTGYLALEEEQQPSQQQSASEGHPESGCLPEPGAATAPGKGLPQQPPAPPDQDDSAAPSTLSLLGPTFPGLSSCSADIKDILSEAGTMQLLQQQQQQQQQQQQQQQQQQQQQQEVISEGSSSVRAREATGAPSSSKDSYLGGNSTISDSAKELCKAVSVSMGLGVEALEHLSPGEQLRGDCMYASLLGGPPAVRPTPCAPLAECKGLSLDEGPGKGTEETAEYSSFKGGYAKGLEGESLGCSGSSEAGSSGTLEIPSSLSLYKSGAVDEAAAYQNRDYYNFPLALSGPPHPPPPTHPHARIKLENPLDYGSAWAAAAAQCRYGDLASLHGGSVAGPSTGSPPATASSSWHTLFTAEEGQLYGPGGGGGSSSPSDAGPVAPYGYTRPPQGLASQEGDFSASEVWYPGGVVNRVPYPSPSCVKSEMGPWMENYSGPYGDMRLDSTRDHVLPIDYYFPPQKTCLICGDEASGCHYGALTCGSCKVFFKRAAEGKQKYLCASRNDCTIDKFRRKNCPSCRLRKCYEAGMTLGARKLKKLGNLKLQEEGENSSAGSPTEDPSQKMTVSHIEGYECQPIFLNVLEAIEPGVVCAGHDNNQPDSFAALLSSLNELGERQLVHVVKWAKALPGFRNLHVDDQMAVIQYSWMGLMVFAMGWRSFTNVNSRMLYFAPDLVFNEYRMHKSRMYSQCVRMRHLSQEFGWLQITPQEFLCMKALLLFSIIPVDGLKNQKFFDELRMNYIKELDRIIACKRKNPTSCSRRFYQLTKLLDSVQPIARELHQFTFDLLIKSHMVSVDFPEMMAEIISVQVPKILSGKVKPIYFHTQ

The inhibition is the drop in the measured response relative to a control, in per cent. As to `CO[C@H]1CC[C@@]2(C)C(=CC[C@H]3[C@@H]4CC[C@H](C(C)=O)[C@@]4(C)CC[C@@H]32)C1` [MAP4343, 3β-methoxy-pregna-5-ene-20-one], the inhibition at 10 µM in assay [1] is 3%; in assay [4], 2%; in assay [6] it was 1%; in [7], -3%; in assay [8] it was 7%; in assay [9], 9%. Further, the inhibition at 10 µM in assay [10] was -21%; in assay [11], 19%; in assay [12], below 25%; in assay [13], 20%; in assay [14], -11%; in assay [16] it was 12%. Further, the inhibition at 10 µM in assay [18] is 20%; in [19], 0%. Also, the “% Inhibition of control specific binding” value in assay [2] is listed as 7%; in assay [3], 4%; in assay [17], 2%. In [5], the “Affinity (index of binding, percent of PREG)” value is given as 100% of PREG. In [15], the “progesterone receptor agonist activity (transactivation, luciferase expression)” value is recorded as “does not have progesterone receptor agonist activity”.
